≈ marks a conversion by molar mass, not a printed value. Residues, ends and D or L forms follow the SMILES beside them.
Test system: P388
Experiment: Growth inhibition of mouse P388 cells
Type: functional
Details: read-out: ED50 (the source's name)

CC[C@H](C)[C@@H]1NC(=O)[C@@H]2CCCN2C(=O)[C@H](Cc2ccccc2)NC(=O)[C@@H]2CCCN2C(=O)[C@H](Cc2ccc(O)cc2)NC(=O)[C@@H]2CCCN2C(=O)[C@H]([C@@H](C)CC)NC1=O [PHAKELLISTATIN 2] (cyclo(FPIIPYP))
EC50: 0.34 µg/mL (≈ 0.411 µM)

CC[C@H](C)[C@@H]1NC(=O)[C@@H]2CCCN2C(=O)[C@H](Cc2ccccc2)NC(=O)[C@@H]2CCCN2C(=O)[C@H](Cc2ccc(O)cc2)NC(=O)[C@@H]2CCCN2C(=O)[C@H]([C@@H](C)CC)NC1=O.Cl [PHAKELLISTATIN 2 (SYNTHETIC)] (cyclo(FPIIPYP))
EC50: 24 µg/mL

Reference: ChEMBL document CHEMBL1157281, “Antineoplastic agents. 400. Synthesis of the Indian Ocean marine sponge cyclic heptapeptide phakellistatin 2” (1999)
